One data set is described as follows: Blood plasma stability. Type of data set: in vitro ADME, human. Here is the method: Stock solutions were prepared by dissolving the reference substances (Nle^15]-MG11 and PP-F11-N) or the triazolominigastrins (1 mg, 750 nmol) in ammonium acetate buffer (50 µL, 0.5 M, pH 5.5) and addition of water to a final peptide concentration of 250 µM (approx. 0.3 mg/mL). For in vitro experiments, DOTA-functionalized compounds (1 nmol, 4 µL of 250 µM stock solution) were added to a mixture of aq. HCl (22.5 µL, 0.05 M, pH 1.3), ammonium acetate buffer (10 µL, 0.5 M, pH 5.5) and aq. sodium ascorbate (5 µL, 0.5 M). 20-25 MBq of [^177Lu]LuCl3 (ca. 2.5 µL, in 0.04 M HCl, 20-25 MBq/nmol) were added and the mixtures were heated to 95 °C for 20 min in a heating block. After labeling, a 1 µL aliquot of the labeling mixture was added to aq. DTPA (200 µL, 25 µM) for quality control by γ-HPLC.
The ^177Lu-labeled compounds were diluted with 0.9% NaCl to a concentration of 3.75 µM and incubated (375 pmol, 100 µL, 7.5-12 MBq) in human blood plasma (1.5 mL) at 37 °C. At different time points (0.5, 1, 2, 4, 6 and 24 h) aliquots (75 µL) were taken and the proteins were precipitated in CH3CN (100 µL) and centrifuged (2 min, 14680 rpm, rt). The supernatant (75 µL) was diluted with water (75 µL) and analyzed by γ-HPLC. One phase decay nonlinear regression (A = A0 ^∗ e^-kt) was used to calculate the half-lifes (t1/2) of the peptide conjugates with GraphPad Prism (n=2-3).

The subject of the next data set is A431-CCK2R cells. Briefly: Cell internalization experiments with 177Lu-labeled conjugates. In kind it is cell-based, Human. The procedure: Stock solutions were prepared by dissolving the reference substances (Nle^15]-MG11 and PP-[…]) or the triazolominigastrins (1 mg, 750 nmol) in ammonium acetate buffer (50 μL, 0.5 M, pH 5.5) and addition of water to a final peptide concentration of 250 μM (approx. 0.3 mg/mL). For in vitro experiments, DOTA-functionalized compounds (1 nmol, 4 μL of 250 μM stock solution) were added to a mixture of aq. HCl (22.5 μL, 0.05 M, pH 1.3), ammonium acetate buffer (10 μL, 0.5 M, pH 5.5) and aq. sodium ascorbate (5 μL, 0.5 M). 20-25 MBq of [^177Lu]LuCl3 (ca. 2.5 μL, in 0.04 M HCl, 20-25 MBq/nmol) were added and the mixtures were heated to 95 °C for 20 min in a heating block. After labeling, a 1 μL aliquot of the labeling mixture was added to aq. DTPA (200 μL, 25 μM) for quality control by γ-HPLC. Human epidermoid carcinoma cells A431 stably transfected to express the CCK2R (A431-CCK2R cells)[Aloj L., Journal of Nuclear Medicine, 2004, 45, 485-494] were grown in monolayers in NunclonTM Delta treated cell culture flasks in humidified air at 5% CO2 and 37 °C. The cells were maintained in the culture medium DMEM (high glucose (4.5 g/L)) supplemented with 20 mM L-Gln and 10% FCS. The culture was passaged regularly at 80 to 90% confluency using a 0.25% trypsin 0.38‰ EDTA solution. Assays were conducted in the assay medium DMEM (high glucose) containing 0.1% BSA. On the day prior to the experiment A431-CCK2R cells were placed in six-well plates (0.85·10^6 cells/well) in cell culture medium and incubated overnight for attachment. On the day of the experiment, the medium was removed and the cells were washed twice with 1 mL PBS. The plates were put on ice for preparation. 0.9 mL of assay medium was dispensed to all wells except the ones for nonspecific binding. 0.2 pmol of ^177Lu-labeled conjugates (100 μL, 2 nM in assay medium, ca. 4.2 kBq) were dispensed to all wells. For the determination of nonspecific binding, a 5000-fold excess of […] (1 nmol, 100 μL, 10 μM in assay medium) was added to 0.8 mL of assay medium containing the ^177Lu-labeled conjugates. The plates were incubated at 37 °C in 5% CO2 to allow binding and internalization. The process was stopped after 30, 60, 120, and 240 min by collection of the supernatant. The cells were washed twice with PBS (each 0.6 mL). The combined supernatants represent the free, unbound fraction of radioactivity. Membrane-bound activity was determined by incubating the cells with cold saline glycine buffer (0.6 mL, 0.05 M, pH 2.8) twice for 5 min at rt. The internalized fraction was isolated by two cycles of cell lysis with NaOH (each 0.6 mL, 1 M, 10 min, rt). The radioactivity of the fractions was measured by a COBRA-II gamma counter and is represented as percentage of total applied radioactivity dosage (n=3-5 in triplicates).

Another data set has as its system CCK2R-positive tumors. The following applies: cited from earlier work.
[1] abbreviates: compared with PP-F11N, Figure 1.
Where [2] appears, read: compared with [Nle^15]MG11, Figure 1.

Read-outs that look alike come from different tables or passages of the source. Numbered stars: 1 amine (or outer) side, 2 acyl side, 3 side chain; on linkers, the order of the positions; unused ones are H or OH. Square brackets hold non-standard residues; d marks the D form. Peptide text beside a SMILES is read from it. * marks the point of attachment. DOTA = O=C(O)CN1CCN(CC(=O)O)CCN(CC(=O)*)CCN(CC(=O)O)CC1; X1 = O=C(Cn1cc([C@H](Cc2ccc(O)cc2)N[*:1])nn1)[*:2]; Nle = CCCC[C@H](N)C(=O)O

Take `CCCC[C@H](NC(=O)[C@H](Cc1c[nH]c2ccccc12)NC(=O)Cn1cc([C@H](Cc2ccc(O)cc2)NC(=O)[C@H](C)NC(=O)[C@@H](CCC(=O)O)NC(=O)CN2CCN(CC(=O)O)CCN(CC(=O)O)CCN(CC(=O)O)CC2)nn1)C(=O)N[C@@H](CC(=O)O)C(=O)N[C@@H](Cc1ccccc1)C(N)=O` [TZMG 6, DOTA-DGlu-Ala-Tyr-Ψ[Tz]-Gly-Trp-Nle-Asp-Phe-NH2] ({DOTA}-[dE]A[X1]W[Nle]DF-NH2): in the data set “Blood plasma stability”, the stability in plasma result was “reduced stability”.

Regarding `CCCC[C@H](NC(=O)[C@H](Cc1c[nH]c2ccccc12)NC(=O)Cn1cc([C@H](Cc2ccc(O)cc2)n2cc([C@H](C)n3cc([C@@H](CCC(=O)O)NC(=O)CN4CCN(CC(=O)O)CCN(CC(=O)O)CCN(CC(=O)O)CC4)nn3)nn2)nn1)C(=O)N[C@@H](CC(=O)O)C(=O)N[C@@H](Cc1ccccc1)C(N)=O` [TZMG 876, DOTA-DGlu-Ψ[Tz]-Ala-Ψ[Tz]-Tyr-Ψ[Tz]-Gly-Trp-Nle-Asp-Phe-NH2], in the data set “Blood plasma stability”, the stability in plasma result is on record as “significantly higher stability”.

Consider “DOTA-(DGlu)5-DGlu-Ψ[Tz]-Ala-Tyr-Ψ[Tz]-Gly-Trp-Nle-Asp-Phe-NH2 [NMG 86]”, for which, in the data set with A431-CCK2R cells (setting [1]), the “cell internalization after 4 h” value was “higher” and the cell internalization kinetics entry is reported as “faster”. Besides, the “stability in plasma over 24 hours” value in the data set “Blood plasma stability” is listed as “high stability”.

In the case of `CCCC[C@H](NC(=O)[C@H](Cc1c[nH]c2ccccc12)NC(=O)CNC(=O)[C@H](Cc1ccc(O)cc1)NC(=O)[C@H](C)NC(=O)[C@@H](CCC(=O)O)NC(=O)[C@@H](CCC(=O)O)NC(=O)[C@@H](CCC(=O)O)NC(=O)[C@@H](CCC(=O)O)NC(=O)[C@@H](CCC(=O)O)NC(=O)[C@@H](CCC(=O)O)NC(=O)CN1CCN(CC(=O)O)CCN(CC(=O)O)CCN(CC(=O)O)CC1)C(=O)N[C@@H](CC(=O)O)C(=O)N[C@@H](Cc1ccccc1)C(N)=O` [PP-F11N, reference compound], the “stability in plasma over 24 hours” value in the data set “Blood plasma stability” (177Lu-labeled, human blood plasma, 37 °C, over 24 hours, Figure 3) is recorded as “high stability”. In the data set on CCK2R-positive tumors (according to WO 2015/067473 A1), the tumor-to-kidney ratio result is on record as “excellent”.

Regarding `CCCC[C@H](NC(=O)[C@H](Cc1c[nH]c2ccccc12)NC(=O)Cn1cc([C@H](Cc2ccc(O)cc2)NC(=O)[C@H](C)NC(=O)[C@@H](CCC(=O)O)NC(=O)[C@@H](CCC(=O)O)NC(=O)[C@@H](CCC(=O)O)NC(=O)[C@@H](CCC(=O)O)NC(=O)[C@@H](CCC(=O)O)NC(=O)[C@@H](CCC(=O)O)NC(=O)CN2CCN(CC(=O)O)CCN(CC(=O)O)CCN(CC(=O)O)CC2)nn1)C(=O)N[C@@H](CC(=O)O)C(=O)N[C@@H](Cc1ccccc1)C(N)=O` [NMG 6, DOTA-(DGlu)5-DGlu-Ala-Tyr-Ψ[Tz]-Gly-Trp-Nle-Asp-Phe-NH2], the “stability in plasma over 24 hours” value in “Blood plasma stability” is given as “high stability”.

“DOTA-DGlu-DGlu-DGlu-DGlu-DGlu-DGlu-Ala-Tyr-Gly-Trp-Met-Asp-Phe-NH2 [PP-F11]”: in the data set with CCK2R-positive tumors ([^177Lu]Lu-PP-F11), the “accumulation in the tumor” value is “high favorable accumulation”. In addition, the “accumulation in the kidneys” value in the data set on CCK2R-positive tumors (in vivo) was “low accumulation”.

Regarding “DOTA-DGlu-Ψ[Tz]-Ala-Tyr-Ψ[Tz]-Gly-Trp-Nle-Asp-Phe-NH2 [TZMG 86]”, in the data set with A431-CCK2R cells (setting [2]), the “cell internalization after 4 h” value is “higher” and the cell internalization kinetics result was “faster”. Also, the stability in plasma entry in the data set “Blood plasma stability” is recorded as “significantly higher stability”.

Source of the values: EP3868394A1, “MONO- AND MULTI-TRIAZOLOMINIGASTRINS FOR TARGETING OF CCK2R-POSITIVE NEOPLASMS” (PAUL SCHERRER INSTITUT, priority 2020, dated 2021).
